Experimental findings from the OligoGym collection are described below.

Bases are written 5' to 3'; sugars and linkages follow in the same order, as letters with counts (s phosphorothioate, o phosphodiester; PS: all linkages phosphorothioate). The collection does not say whether C is 5-methylated. l = locked nucleic acid (LNA); d = 2'-deoxy (DNA)

The target of this data set is Tau. The data set can be described thus: rat primary cortical neurons, FLIPR, 25 uM ASO.
Regarding GTTAGCCCTAAAGTCC (sugars l3 d10 l3, PS), the calcium oscillation score was 110 % of control. To “ACTAACTCTAAGTAGACCCT (sugars l3 d14 l3, PS)” belongs 40.3 % of control. Consider AATAGCAAACAGGAT (sugars l3 d9 l3, PS), for which the calcium oscillation score was 3.83 % of control. Next, “ATTAATTATCTGCACCT (sugars l4 d10 l3, PS)”: 24.7 % of control; GGTGCTCTGGTCAA (sugars l3 d8 l3, PS): 102 % of control. For “ACCACATTATCATCCATTC (sugars l2 d14 l3, PS)”, the calcium oscillation score is 51.9 % of control.

In the case of “ACCCTTACACATAGCTTC (sugars l2 d13 l3, PS)”, the calcium oscillation score is 53.9 % of control. Next, “TTCCTGGCCATCTTATGCTG (sugars l3 d14 l3, PS)”: 22 % of control. Consider GAACTGGTTAGCCCTA (sugars l3 d10 l3, PS), for which the calcium oscillation score was 79.9 % of control. As to “TCTTTGCTTTTACTGACCAT (sugars l3 d14 l3, PS)”, the calcium oscillation score is 29.6 % of control. With AATTAAATTTCTCCCTG (sugars l4 d9 l4, PS), the calcium oscillation score is 34.1 % of control. Regarding “ATGACCTCAACTCTACCT (sugars l3 d13 l2, PS)”, the calcium oscillation score was 61 % of control. Next, “TCCAAAACATTCTCACCAAA (sugars l4 d14 l2, PS)”: 85.7 % of control; “CAGGTTAAGTGATTAACCAA (sugars l3 d14 l3, PS)”: 17.4 % of control; “TTTTTTAACTCCCAACTCT (sugars l4 d13 l2, PS)”: 95.7 % of control. As to “ACTCAACATTACCCTTAAA (sugars l4 d11 l4, PS)”, the calcium oscillation score was 82.4 % of control. With “TTTGCTTCACACACCAC (sugars l2 d12 l3, PS)”, the calcium oscillation score is 89 % of control. To “TATTGTCCAGGGACCCAATC (sugars l3 d14 l3, PS)” belongs 33.2 % of control; to “TTAATTCATAAATGACTATA (sugars l3 d14 l3, PS)”, 58.4 % of control. To “GATATTGTCCAGGGACCCAA (sugars l3 d14 l3, PS)” belongs 9.97 % of control. In the case of “ACCATCCAAGTCAATGCCTG (sugars l3 d14 l3, PS)”, the calcium oscillation score was 4.03 % of control. Next, “CATCACCAAGTCCCAAA (sugars l2 d11 l4, PS)”: 81 % of control; “CACATGCACCCAACTCTA (sugars l2 d13 l3, PS)”: 60.2 % of control; “TCTACATTTTTGTCTCA (sugars l3 d11 l3, PS)”: 47.1 % of control. Next, CGCGGAAGGTCAGCTT (sugars l3 d10 l3, PS): 33.3 % of control.

For the sequence “ATGGATGTTGCCTAATGAGC (sugars l3 d14 l3, PS)”, the calcium oscillation score was 0 % of control. Take ATAGATTTTACTACTC (sugars l4 d8 l4, PS): the calcium oscillation score is 73.3 % of control.

With TTGGCTTTGGCGTT (sugars l3 d8 l3, PS), the calcium oscillation score is 96.2 % of control. ATAGCAAACAGGATAC (sugars l3 d10 l3, PS): the calcium oscillation score was 27.6 % of control. Next, “CCTCTCCTTTAAGAAAA (sugars l4 d10 l3, PS)”: 74.9 % of control; GTCACCTTGCTCAGGT (sugars l3 d10 l3, PS): 7.67 % of control; “CCAACTCAACATTACCCTT (sugars l2 d15 l2, PS)”: 66.3 % of control. Turning to AGTGGAGCCGATCTTG (sugars l3 d10 l3, PS), the calcium oscillation score is 0 % of control. Regarding “CCAGCGTGATCTTCCATCAC (sugars ldlllddddddddddlldll, PS)”, the calcium oscillation score was 124 % of control. To AGGAAATCCACAGGGA (sugars l3 d10 l3, PS) belongs 0 % of control. CTCCAATTTTAAACTTA (sugars l4 d9 l4, PS): the calcium oscillation score is 66.5 % of control. To “CCAGCGTGATCTTCCATCAC (sugars l5 d11 l4, PS)” belongs 91.6 % of control; to “ACTTAAAATTTTTCTTATT (sugars l4 d11 l4, PS)”, 75.1 % of control.
